{"source": "patent US11458102B2", "about": "“Acetaminophen preparation, and method for producing same” (NIPPON ZOKI PHARMACEUTICAL CO., LTD., priority 2017, dated 2022)", "assay": "Particle size distribution of acetaminophen drug substance by laser-diffraction method (dry measurement)", "format": "physicochemical", "excerpt": "The acetaminophen to be used in the present invention (also referred to as “the present acetaminophen”) has a particle size distribution in which d10 is generally 5 to 200 μm, preferably 10 to 150 μm, more preferably 12 to 100 μm, and d90 is generally 200 to 1800 μm, preferably 250 to 1600 μm, more preferably 280 to 1450 μm. Although there are some differences in the particle size distribution among lots, the unpulverized acetaminophen generally has the above-specified particle size distribution. In contrast, although there are some differences in the particle size distribution of a pulverized product of acetaminophen among the manufacturers of the drug substance and production lots, a pulverized product of acetaminophen generally has a particle size distribution in which the d10 is 3 to 10 μm and d90 is 100 to 250 μm, and therefore the particle diameters of the pulverized product of acetaminophen are smaller compared with those of the present acetaminophen. In the present invention, the particle size distribution is determined by a volume distribution evaluation employing a laser-diffraction method (Measuring Instrument: e.g., Mastersizer 2000 or Mastersizer 3000 (Malvern), Dispersion compression air pressure: 2 to 4 Bar), and the terms “d10”, “d50”, and “d90” refer to particle diameters at a volume cumulative 10% point, a volume cumulative 50% point, and a volume cumulative 90% point, respectively, as observed from the smaller diameter side in the particle size distribution. “a laser-diffraction method” is also referred to as “a laser-diffraction scattering method” Each of unpulverized products of acetaminophen (lots A to P) and pulverized products of acetaminophen (lots a to b) was subjected to a particle size distribution measurement using a particle measurement method (dry measurement) by a laser-diffraction method. As an instrument, a dry automated dispersion unit microtray (Mastersizer 2000 or Mastersizer 3000, Malvern) was used, the dispersion compression air pressure was 2 Bar or 4 Bar, and the analysis of particle size distribution was performed by a volume conversion method. […] The range of the particle size distribution in the present invention is determined with taking the above-mentioned finding into consideration. The lots of the acetaminophen drug substances shown in Table 1 are different from each other with respect to the conditions for manufacturing thereof, such as temperature and humidity. […] For example, the results of (1) to (2) of lot E and (1) to (12) of lot H in Table 1 are the results for different measurement samples of the same lots. As apparent from the results, the measurement results may vary depending on the zones of sampling even when the samples are of the same lot or depending on the types of measurement instrument to be used even when the measurement is carried out by the same method.", "key": {"[1]": {"conditions": "Mastersizer 2000, laser diffraction, volume distribution, dry, listed as B"}, "[2]": {"conditions": "Mastersizer 2000, laser diffraction, volume distribution, dry, listed as b"}, "[3]": {"conditions": "Mastersizer 2000, laser diffraction, volume distribution, dry, listed as F"}, "[4]": {"conditions": "Mastersizer 2000, laser diffraction, volume distribution, dry, listed as L"}, "[5]": {"conditions": "Mastersizer 2000, laser diffraction, volume distribution, dry, listed as A"}, "[6]": {"conditions": "Mastersizer 2000, laser diffraction, volume distribution, dry, listed as a"}, "[7]": {"conditions": "Mastersizer 2000, laser diffraction, volume distribution, dry, listed as M"}, "[8]": {"conditions": "Mastersizer 2000, laser diffraction, volume distribution, dry, listed as P"}, "[9]": {"conditions": "Mastersizer 2000, laser diffraction, volume distribution, dry, listed as G"}, "[10]": {"conditions": "Mastersizer 2000, laser diffraction, volume distribution, dry, listed as H"}, "[11]": {"conditions": "Mastersizer 2000, laser diffraction, volume distribution, dry, listed as C"}, "[12]": {"conditions": "measurement instrument printed as dash, listed as c"}, "[13]": {"conditions": "Mastersizer 2000, laser diffraction, volume distribution, dry, listed as N"}, "[14]": {"conditions": "Mastersizer 2000, laser diffraction, volume distribution, dry, listed as O"}, "[15]": {"conditions": "Mastersizer 2000, laser diffraction, volume distribution, dry, listed as I"}, "[16]": {"conditions": "Mastersizer 2000, laser diffraction, volume distribution, dry, listed as D"}, "[17]": {"conditions": "measurement instrument printed as dash, listed as d"}, "[18]": {"conditions": "Mastersizer 2000, laser diffraction, volume distribution, dry, listed as J"}, "[19]": {"conditions": "Mastersizer 2000, laser diffraction, volume distribution, dry, listed as K"}, "[20]": {"conditions": "Mastersizer 2000, laser diffraction, volume distribution, dry, listed as E"}, "[21]": {"conditions": "Mastersizer 3000, laser diffraction, volume distribution, dry"}}}
{"compound": "CC(=O)Nc1ccc(O)cc1", "note": "[Lot B, acetaminophen]", "values": [{"measurement": "Particle Diameters D10", "setting": "[1]", "result": 30, "unit": "μm"}, {"measurement": "Particle Diameters D90", "setting": "[1]", "result": 551, "unit": "μm"}, {"measurement": "Particle Diameters D10", "setting": "[2]", "result": 4, "unit": "μm"}, {"measurement": "Particle Diameters D90", "setting": "[2]", "result": 144, "unit": "μm"}]}
{"compound": "CC(=O)Nc1ccc(O)cc1", "note": "[Lot F, acetaminophen]", "values": [{"measurement": "Particle Diameters D10", "setting": "[3]", "result": 31, "unit": "μm"}, {"measurement": "Particle Diameters D90", "setting": "[3]", "result": 488, "unit": "μm"}]}
{"compound": "CC(=O)Nc1ccc(O)cc1", "note": "[Lot L, acetaminophen]", "values": [{"measurement": "Particle Diameters D10", "setting": "[4]", "result": 30, "unit": "μm"}, {"measurement": "Particle Diameters D90", "setting": "[4]", "result": 486, "unit": "μm"}]}
{"compound": "CC(=O)Nc1ccc(O)cc1", "note": "[Lot A, acetaminophen]", "values": [{"measurement": "Particle Diameters D10", "setting": "[5]", "result": 20, "unit": "μm"}, {"measurement": "Particle Diameters D90", "setting": "[5]", "result": 320, "unit": "μm"}, {"measurement": "Particle Diameters D10", "setting": "[6]", "result": 4, "unit": "μm"}, {"measurement": "Particle Diameters D90", "setting": "[6]", "result": 166, "unit": "μm"}]}
{"compound": "CC(=O)Nc1ccc(O)cc1", "note": "[Lot M, acetaminophen]", "values": [{"measurement": "Particle Diameters D10", "setting": "[7]", "result": 27, "unit": "μm"}, {"measurement": "Particle Diameters D90", "setting": "[7]", "result": 419, "unit": "μm"}]}
{"compound": "CC(=O)Nc1ccc(O)cc1", "note": "[Lot P, acetaminophen]", "values": [{"measurement": "Particle Diameters D10", "setting": "[8]", "result": 20, "unit": "μm"}, {"measurement": "Particle Diameters D90", "setting": "[8]", "result": 424, "unit": "μm"}]}
{"compound": "CC(=O)Nc1ccc(O)cc1", "note": "[Lot G, acetaminophen]", "values": [{"measurement": "Particle Diameters D10", "setting": "[9]", "result": 24, "unit": "μm"}, {"measurement": "Particle Diameters D90", "setting": "[9]", "result": 432, "unit": "μm"}]}
{"compound": "CC(=O)Nc1ccc(O)cc1", "note": "[Lot H, acetaminophen]", "values": [{"measurement": "Particle Diameters D10", "setting": "[10]", "result": 23, "unit": "μm"}, {"measurement": "Particle Diameters D90", "setting": "[10]", "result": 429, "unit": "μm"}]}
{"compound": "CC(=O)Nc1ccc(O)cc1", "note": "[Lot C, acetaminophen]", "values": [{"measurement": "Particle Diameters D10", "setting": "[11]", "result": 26, "unit": "μm"}, {"measurement": "Particle Diameters D90", "setting": "[11]", "result": 419, "unit": "μm"}, {"measurement": "Particle Diameters D10", "setting": "[12]", "result": 6, "unit": "μm"}, {"measurement": "Particle Diameters D90", "setting": "[12]", "result": 104, "unit": "μm"}]}
{"compound": "CC(=O)Nc1ccc(O)cc1", "note": "[Lot N, acetaminophen]", "values": [{"measurement": "Particle Diameters D10", "setting": "[13]", "result": 26, "unit": "μm"}, {"measurement": "Particle Diameters D90", "setting": "[13]", "result": 439, "unit": "μm"}]}
{"compound": "CC(=O)Nc1ccc(O)cc1", "note": "[Lot O, acetaminophen]", "values": [{"measurement": "Particle Diameters D10", "setting": "[14]", "result": 24, "unit": "μm"}, {"measurement": "Particle Diameters D90", "setting": "[14]", "result": 387, "unit": "μm"}]}
{"compound": "CC(=O)Nc1ccc(O)cc1", "note": "[Lot I, acetaminophen]", "values": [{"measurement": "Particle Diameters D10", "setting": "[15]", "result": 22, "unit": "μm"}, {"measurement": "Particle Diameters D90", "setting": "[15]", "result": 433, "unit": "μm"}]}
{"compound": "CC(=O)Nc1ccc(O)cc1", "note": "[Lot D, acetaminophen]", "values": [{"measurement": "Particle Diameters D10", "setting": "[16]", "result": 20, "unit": "μm"}, {"measurement": "Particle Diameters D90", "setting": "[16]", "result": 464, "unit": "μm"}, {"measurement": "Particle Diameters D10", "setting": "[17]", "result": 10, "unit": "μm"}, {"measurement": "Particle Diameters D90", "setting": "[17]", "result": 192, "unit": "μm"}]}
{"compound": "CC(=O)Nc1ccc(O)cc1", "note": "[Lot J, acetaminophen]", "values": [{"measurement": "Particle Diameters D10", "setting": "[18]", "result": 27, "unit": "μm"}, {"measurement": "Particle Diameters D90", "setting": "[18]", "result": 404, "unit": "μm"}]}
{"compound": "CC(=O)Nc1ccc(O)cc1", "note": "[Lot K, acetaminophen]", "values": [{"measurement": "Particle Diameters D10", "setting": "[19]", "result": 22, "unit": "μm"}, {"measurement": "Particle Diameters D90", "setting": "[19]", "result": 442, "unit": "μm"}]}
{"compound": "CC(=O)Nc1ccc(O)cc1", "note": "[Lot E, acetaminophen]", "values": [{"measurement": "Particle Diameters D10", "setting": "[20]", "result": 16, "unit": "μm"}, {"measurement": "Particle Diameters D90", "setting": "[20]", "result": 361, "unit": "μm"}, {"measurement": "Particle Diameters D10", "setting": "[21]", "result": 66, "unit": "μm"}, {"measurement": "Particle Diameters D90", "setting": "[21]", "result": 1290, "unit": "μm"}]}
